Legend:
GR complex = assay: modulation of [35S]TBPS binding in rat cerebral cortex P2 homogenate; design: species or system Sprague-Dawley rats; IMAX: unit not given here
How it was run: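 Rat (male Sprague-Dawley) cortical P2 homogenate, 0.5 mg protein, in 50 mM Na/K phosphate pH 7.4, 200 mM NaCl, incubated 90 min at 25° C with 2 nM [35S]TBPS plus GABA and (+)bicuculline, compounds added in DMSO. Filter-bound radioactivity counted; nonspecific binding defined with […].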

[1] = tested on: metrazol induced convulsions; assay: animal or person; assay type: in vivo, mice
rats = assay: Geller-Seifter conflict test; assay type: in vivo, Sprague-Dawley rats
From the text: This animal model of human anxiety utilizes a conditioned state of conflict in rats to ascertain the anxiolytic properties of drugs. Rats are conditioned to bar press for positive reinforcement under two schedules of behavior (Geller and Seifter, Psychopharmacologia 1:482-492 (1960)). The first includes bar pressing under a […] schedule without punishment. The second component is a fixed ratio schedule with each bar press resulting in a positive reinforcement and a punishment. The punished component produces a state of conflict within the animal. […] An anxiolytic response would increase the punished responding without affecting the unpunished responding.
Male albino Sprague-Dawley rats (Charles River Labs, Wilmington, MA) weighing 250-300 g were used for conflict experiments and were kept on a restricted diet of Purina Lab Chow food pellets with water available at all times to maintain body weight at 85% of their free-feeding young adult levels. Rats were housed individually under a 12-hour light-dark cycle with lights on from 0700-1900.
The anti-anxiety (punishment-lessening) and response depressant effects of […] and […] were measured in rats by the conflict test of Geller and Seifter (1960). In this 63-min test, hungry rats perform a lever-press response to obtain a sweetened milk reward. The reinforcement schedule consists of punishment and nonpunishment components, alternating approximately every 15 min. Rats were trained in test chambers (Coulbourn instruments) with a lever mounted in one wall, a small dipper that delivered the 0.1-mL milk reward (1 part Eagle condensed : milk 2 parts water), and a metal grid floor through which the foot-shock punishment was administered. A DEC PDP 11/73 minicomputer running SKED (State Systems) was used for programming and recording.
Rates initially learned to respond on a continuous reinforcement schedule and progressed rapidly to 30-sec, 1-min, and 2-min variable interval (VI) schedules. On the continuous reinforcement schedule, rats received milk reward following every lever press; on the VI schedules, milk rewards were available at infrequent and variable intervals, eventually at an average of once every 2 min. Four 3-min "conflict" periods were then introduced on the unpunished VI baseline; the first started after 3 min of VI performance and the others were alternated between 12-min periods of VI responding. During conflict periods, which were signalled by the presentation of a light and a tone, the continuous reinforcement schedule was again in force and each lever press delivered both a milk reward and a brief ([…]) foot-shock punishment. Shock intensity was 0.2 mA initially, and.was increased daily in increments of 0.02 mA in order to gradually suppress lever pressing to 5 responses or less per conflict period. This training took 4-6 weeks, after which stable low rates of response were observed during conflict periods and stable high rates in the nonpunishment periods. Drug-induced increases in the rate of punished responses were taken as an index of antianxiety activity, while decreases in the rate of unpunished responses were taken as an index of response depression or sedation.

[2] = conflict test, subcutaneous administration

For CC(=O)[C@H]1CC[C@H]2[C@@H]3CC[C@H]4C[C@H](O)CC[C@]4(C)[C@H]3CC[C@]12C [3α-hydroxy-5α-pregnan-20-one, reference compound], the IC50 (GR complex; concentration of compounds to inhibit 50% of control [35S]TBPS binding, 2 nM [35S]TBPS, 25°C, 90 minutes, no unit printed) was 37 nM, the IMAX (GR complex; maximum inhibition of [35S]TBPS binding, I* = Inactive) was 95 and the “% Protected” value ([1]; IP, 50% hpbcd, 10 mg/kg, 10 minutes prior to metrazol (85 mg/kg)) was 100%. The ED50 ([1]; Mus musculus, metrazol s.c., steroid i.p., 20% hydroxypropyl-β-cyclodextrin in water) was 4.9 mg/kg, the “dose at which the peak effect was observed” value (rats; [2]) was 4.4 mg/kg and the “rate of punished responses” value (rats; [2]) was “large increases”. For the same molecule, the “Geller/Seifter (% of control)” value (rats; sc, 50% hpbcd, 5 mg/kg) was 471.8 % of control.

— patent publication EP0808325B1, “[…] […] SERIES FOR […] GABA RECEPTOR” (priority 1994, dated 1996)
